{
  "source": "patent US6875422B2",
  "about": "“Oral treatment/care agent” (priority 2000, dated 2005)",
  "settings": "used alone",
  "method": "Here, a complete cure was determined by comparing the configuration and properties (hardness and color, in clinical practice) of the periodontium, mobility of the teeth, depth of pockets, hemorrhaging, pus discharge, effusion, bacterial flora within the pocket and the like, against those of a normal person (excepting any dramatic periodontial regeneration such as dramatic bone growth relative to the normal person through this medication alone).",
  "data": [
    {"smiles": "C[C@@H]1[C@H](O)[C@@H](C)/C=C/C=C/C=C/C=C/C=C/C=C/C=C/[C@H](O[C@@H]2O[C@H](C)[C@@H](O)[C@H](N)[C@@H]2O)C[C@@H]2O[C@](O)(C[C@@H](O)C[C@@H](O)[C@H](O)CC[C@@H](O)C[C@@H](O)CC(=O)O[C@H]1C)C[C@H](O)[C@H]2C(=O)O", "note": "[amphotericin, amphotericin B]", "values": [
      {"measurement": "occurrences on use alone", "value": "annual-term occurrences"}
    ]}
  ]
}
